{
  "source": "paper PMC6268944",
  "experiment": "amide bond formation (head-to-tail lactamisation): terminal amine + amino acid COOH, EDC.HCl 2.2 equiv, DMAP 0.2 equiv, substrate (HCl salt) and reagent solutions each added dropwise over 1 h",
  "details": "14-membered ring, CH2Cl2, 4.0 mM, 2 steps",
  "data": [
    {"smiles": "CCN1CCN(CC)C(=O)c2[nH]cnc2C(=O)N[C@@H](C)C(=O)NCC1=O", "note": "[H-Gly-[N(Et)CH2CH2N(Et)]-CO-(imidazole-4,5-diyl)-CO-Ala-OH]", "values": [
      {"measurement": "ring closure, yield over several steps", "setting": "from CCN(CCN(CC)C(=O)c1[nH]cnc1C(=O)N[C@@H](C)C(=O)O)C(=O)CN, 14.0 h", "value": 9, "unit": "%"}
    ]},
    {"smiles": "CCN1CCN(CC)C(=O)[C@H](C)NC(=O)CNC(=O)c2nc[nH]c2C1=O", "note": "[H-Ala-[N(Et)CH2CH2N(Et)]-CO-(imidazole-4,5-diyl)-CO-Gly-OH]", "values": [
      {"measurement": "ring closure, yield over several steps", "setting": "from CCN(CCN(CC)C(=O)[C@H](C)N)C(=O)c1[nH]cnc1C(=O)NCC(=O)O, 14.0 h", "value": 0, "unit": "%"}
    ]},
    {"smiles": "C[C@@H]1NC(=O)[C@@H](C)NC(=O)c2nc[nH]c2C(=O)N(C)CCN(C)C1=O", "note": "[H-Ala-[N(Me)CH2CH2N(Me)]-CO-(imidazole-4,5-diyl)-CO-D-Ala-OH]", "values": [
      {"measurement": "ring closure, yield over several steps", "setting": "from C[C@H](N)C(=O)N(C)CCN(C)C(=O)c1[nH]cnc1C(=O)N[C@H](C)C(=O)O, 14.0 h", "value": 0, "unit": "%"}
    ]},
    {"smiles": "CCN1CCN(CC)C(=O)[C@H](CC(C)C)NC(=O)[C@H](C)NC(=O)c2nc[nH]c2C1=O", "note": "[H-Leu-[N(Et)CH2CH2N(Et)]-CO-(imidazole-4,5-diyl)-CO-Ala-OH]", "values": [
      {"measurement": "ring closure, yield over several steps", "setting": "from CCN(CCN(CC)C(=O)[C@@H](N)CC(C)C)C(=O)c1[nH]cnc1C(=O)N[C@@H](C)C(=O)O, 14.0 h", "value": 11, "unit": "%"}
    ]},
    {"smiles": "C[C@@H]1NC(=O)c2nc[nH]c2C(=O)N(C)CCN(C)C(=O)[C@H](C)NC1=O", "note": "[H-Ala-[N(Me)CH2CH2N(Me)]-CO-(imidazole-4,5-diyl)-CO-Ala-OH]", "values": [
      {"measurement": "ring closure, yield over several steps", "setting": "from C[C@H](N)C(=O)N(C)CCN(C)C(=O)c1[nH]cnc1C(=O)N[C@@H](C)C(=O)O, 14.0 h", "value": 32, "unit": "%"}
    ]},
    {"smiles": "CCN1CCN(CC)C(=O)[C@@H](C)NC(=O)[C@H](C)NC(=O)c2nc[nH]c2C1=O", "note": "[H-D-Ala-[N(Et)CH2CH2N(Et)]-CO-(imidazole-4,5-diyl)-CO-Ala-OH]", "values": [
      {"measurement": "ring closure, yield over several steps", "setting": "from CCN(CCN(CC)C(=O)[C@@H](C)N)C(=O)c1[nH]cnc1C(=O)N[C@@H](C)C(=O)O, 14.0 h", "value": 10, "unit": "%"}
    ]},
    {"smiles": "CCN1CCN(CC)C(=O)[C@H](C)NC(=O)[C@@H](C)NC(=O)c2nc[nH]c2C1=O", "note": "[H-Ala-[N(Et)CH2CH2N(Et)]-CO-(imidazole-4,5-diyl)-CO-D-Ala-OH]", "values": [
      {"measurement": "ring closure, yield over several steps", "setting": "from CCN(CCN(CC)C(=O)[C@H](C)N)C(=O)c1[nH]cnc1C(=O)N[C@H](C)C(=O)O, 14.0 h", "value": 8, "unit": "%"}
    ]},
    {"smiles": "CCN1CCN(CC)C(=O)c2[nH]cnc2C(=O)NCC(=O)NCC1=O", "note": "[H-Gly-[N(Et)CH2CH2N(Et)]-CO-(imidazole-4,5-diyl)-CO-Gly-OH]", "values": [
      {"measurement": "ring closure, yield over several steps", "setting": "from CCN(CCN(CC)C(=O)c1[nH]cnc1C(=O)NCC(=O)O)C(=O)CN, 14.0 h", "value": 0, "unit": "%"}
    ]},
    {"smiles": "CCN1CCN(CC)C(=O)[C@H](CC(C)C)NC(=O)[C@@H](C)NC(=O)c2nc[nH]c2C1=O", "note": "[H-Leu-[N(Et)CH2CH2N(Et)]-CO-(imidazole-4,5-diyl)-CO-D-Ala-OH]", "values": [
      {"measurement": "ring closure, yield over several steps", "setting": "from CCN(CCN(CC)C(=O)[C@@H](N)CC(C)C)C(=O)c1[nH]cnc1C(=O)N[C@H](C)C(=O)O, 14.0 h", "value": 0, "unit": "%"}
    ]},
    {"smiles": "CCN1CCN(CC)C(=O)[C@@H](C)NC(=O)[C@@H](C)NC(=O)c2nc[nH]c2C1=O", "values": [
      {"measurement": "ring closure, yield over several steps", "setting": "from CCN(CCN(CC)C(=O)[C@@H](C)N)C(=O)c1[nH]cnc1C(=O)N[C@H](C)C(=O)O, 14.0 h", "value": 9, "unit": "%"}
    ]},
    {"smiles": "CC(C)C[C@@H]1NC(=O)CNC(=O)c2nc[nH]c2C(=O)N(C)CCN(C)C1=O", "note": "[H-Leu-[N(Me)CH2CH2N(Me)]-CO-(imidazole-4,5-diyl)-CO-Gly-OH]", "values": [
      {"measurement": "ring closure, yield over several steps", "setting": "from CC(C)C[C@H](N)C(=O)N(C)CCN(C)C(=O)c1[nH]cnc1C(=O)NCC(=O)O, 14.0 h", "value": 0, "unit": "%"}
    ]},
    {"smiles": "CC(C)C[C@@H]1NC(=O)c2nc[nH]c2C(=O)N(C)CCN(C)C(=O)[C@@H](C)NC1=O", "note": "[H-D-Ala-[N(Me)CH2CH2N(Me)]-CO-(imidazole-4,5-diyl)-CO-Leu-OH]", "values": [
      {"measurement": "ring closure, yield over several steps", "setting": "from CC(C)C[C@H](NC(=O)c1nc[nH]c1C(=O)N(C)CCN(C)C(=O)[C@@H](C)N)C(=O)O, 14.0 h", "value": 11, "unit": "%"}
    ]},
    {"smiles": "CCN1CCN(CC)C(=O)c2[nH]cnc2C(=O)N[C@H](C)C(=O)NCC1=O", "note": "[H-Gly-[N(Et)CH2CH2N(Et)]-CO-(imidazole-4,5-diyl)-CO-D-Ala-OH]", "values": [
      {"measurement": "ring closure, yield over several steps", "setting": "from CCN(CCN(CC)C(=O)c1[nH]cnc1C(=O)N[C@H](C)C(=O)O)C(=O)CN, 14.0 h", "value": 8, "unit": "%"}
    ]},
    {"smiles": "CCN1CCN(CC)C(=O)[C@H](C)NC(=O)[C@H](C)NC(=O)c2nc[nH]c2C1=O", "note": "[H-Ala-[N(Et)CH2CH2N(Et)]-CO-(imidazole-4,5-diyl)-CO-Ala-OH]", "values": [
      {"measurement": "ring closure, yield over several steps", "setting": "from CCN(CCN(CC)C(=O)[C@H](C)N)C(=O)c1[nH]cnc1C(=O)N[C@@H](C)C(=O)O, 14.0 h", "value": 7, "unit": "%"}
    ]},
    {"smiles": "C[C@@H]1NC(=O)c2nc[nH]c2C(=O)N(C)CCN(C)C(=O)CNC1=O", "note": "[H-Gly-[N(Me)CH2CH2N(Me)]-CO-(imidazole-4,5-diyl)-CO-Ala-OH]", "values": [
      {"measurement": "ring closure, yield over several steps", "setting": "from C[C@H](NC(=O)c1nc[nH]c1C(=O)N(C)CCN(C)C(=O)CN)C(=O)O, 21.0 h", "value": 7, "unit": "%"}
    ]},
    {"smiles": "CC(C)C[C@@H]1NC(=O)[C@@H](C)NC(=O)c2nc[nH]c2C(=O)N(C)CCN(C)C1=O", "note": "[H-Leu-[N(Me)CH2CH2N(Me)]-CO-(imidazole-4,5-diyl)-CO-D-Ala-OH]", "values": [
      {"measurement": "ring closure, yield over several steps", "setting": "from CC(C)C[C@H](N)C(=O)N(C)CCN(C)C(=O)c1[nH]cnc1C(=O)N[C@H](C)C(=O)O, 14.0 h", "value": 37, "unit": "%"}
    ]},
    {"smiles": "CCN1CCN(CC)C(=O)[C@H](CC(C)C)NC(=O)[C@H](CC(C)C)NC(=O)c2nc[nH]c2C1=O", "note": "[H-Leu-[N(Et)CH2CH2N(Et)]-CO-(imidazole-4,5-diyl)-CO-Leu-OH]", "values": [
      {"measurement": "ring closure, yield over several steps", "setting": "from CCN(CCN(CC)C(=O)[C@@H](N)CC(C)C)C(=O)c1[nH]cnc1C(=O)N[C@@H](CC(C)C)C(=O)O, 14.0 h", "value": 0, "unit": "%"}
    ]},
    {"smiles": "C[C@@H]1NC(=O)CNC(=O)c2nc[nH]c2C(=O)N(C)CCN(C)C1=O", "note": "[H-Ala-[N(Me)CH2CH2N(Me)]-CO-(imidazole-4,5-diyl)-CO-Gly-OH]", "values": [
      {"measurement": "ring closure, yield over several steps", "setting": "from C[C@H](N)C(=O)N(C)CCN(C)C(=O)c1[nH]cnc1C(=O)NCC(=O)O, 14.0 h", "value": 0, "unit": "%"}
    ]},
    {"smiles": "C[C@H]1NC(=O)c2nc[nH]c2C(=O)N(C)CCN(C)C(=O)CNC1=O", "note": "[H-Gly-[N(Me)CH2CH2N(Me)]-CO-(imidazole-4,5-diyl)-CO-D-Ala-OH]", "values": [
      {"measurement": "ring closure, yield over several steps", "setting": "from C[C@@H](NC(=O)c1nc[nH]c1C(=O)N(C)CCN(C)C(=O)CN)C(=O)O, 18.0 h", "value": 17, "unit": "%"}
    ]},
    {"smiles": "CN1CCN(C)C(=O)c2[nH]cnc2C(=O)NCC(=O)NCC1=O", "note": "[H-Gly-[N(Me)CH2CH2N(Me)]-CO-(imidazole-4,5-diyl)-CO-Gly-OH]", "values": [
      {"measurement": "ring closure, yield over several steps", "setting": "from CN(CCN(C)C(=O)c1[nH]cnc1C(=O)NCC(=O)O)C(=O)CN, 10.5 h", "value": 7, "unit": "%"}
    ]},
    {"smiles": "C[C@H]1NC(=O)CNC(=O)c2nc[nH]c2C(=O)N(C)CCN(C)C1=O", "note": "[H-D-Ala-[N(Me)CH2CH2N(Me)]-CO-(imidazole-4,5-diyl)-CO-Gly-OH]", "values": [
      {"measurement": "ring closure, yield over several steps", "setting": "from C[C@@H](N)C(=O)N(C)CCN(C)C(=O)c1[nH]cnc1C(=O)NCC(=O)O, 14.0 h", "value": 0, "unit": "%"}
    ]},
    {"smiles": "CCN1CCN(CC)C(=O)[C@H](CC(C)C)NC(=O)CNC(=O)c2nc[nH]c2C1=O", "note": "[H-Leu-[N(Et)CH2CH2N(Et)]-CO-(imidazole-4,5-diyl)-CO-Gly-OH]", "values": [
      {"measurement": "ring closure, yield over several steps", "setting": "from CCN(CCN(CC)C(=O)[C@@H](N)CC(C)C)C(=O)c1[nH]cnc1C(=O)NCC(=O)O, 14.0 h", "value": 8, "unit": "%"}
    ]},
    {"smiles": "CC(C)C[C@@H]1NC(=O)[C@H](C)NC(=O)c2nc[nH]c2C(=O)N(C)CCN(C)C1=O", "note": "[H-Leu-[N(Me)CH2CH2N(Me)]-CO-(imidazole-4,5-diyl)-CO-Ala-OH]", "values": [
      {"measurement": "ring closure, yield over several steps", "setting": "from CC(C)C[C@H](N)C(=O)N(C)CCN(C)C(=O)c1[nH]cnc1C(=O)N[C@@H](C)C(=O)O, 14.0 h", "value": 14, "unit": "%"}
    ]},
    {"smiles": "C[C@H]1NC(=O)c2nc[nH]c2C(=O)N(C)CCN(C)C(=O)[C@@H](C)NC1=O", "values": [
      {"measurement": "ring closure, yield over several steps", "setting": "from C[C@@H](N)C(=O)N(C)CCN(C)C(=O)c1[nH]cnc1C(=O)N[C@H](C)C(=O)O, 14.0 h", "value": 0, "unit": "%"}
    ]},
    {"smiles": "CC(C)C[C@@H]1NC(=O)c2nc[nH]c2C(=O)N(C)CCN(C)C(=O)CNC1=O", "note": "[H-Gly-[N(Me)CH2CH2N(Me)]-CO-(imidazole-4,5-diyl)-CO-Leu-OH]", "values": [
      {"measurement": "ring closure, yield over several steps", "setting": "from CC(C)C[C@H](NC(=O)c1nc[nH]c1C(=O)N(C)CCN(C)C(=O)CN)C(=O)O, 17.5 h", "value": 37, "unit": "%"}
    ]},
    {"smiles": "CCN1CCN(CC)C(=O)[C@@H](C)NC(=O)CNC(=O)c2nc[nH]c2C1=O", "note": "[H-D-Ala-[N(Et)CH2CH2N(Et)]-CO-(imidazole-4,5-diyl)-CO-Gly-OH]", "values": [
      {"measurement": "ring closure, yield over several steps", "setting": "from CCN(CCN(CC)C(=O)[C@@H](C)N)C(=O)c1[nH]cnc1C(=O)NCC(=O)O, 14.0 h", "value": 3, "unit": "%"}
    ]},
    {"smiles": "C[C@@H]1NC(=O)c2nc[nH]c2C(=O)N(C)CCN(C)C(=O)[C@@H](C)NC1=O", "note": "[H-D-Ala-[N(Me)CH2CH2N(Me)]-CO-(imidazole-4,5-diyl)-CO-Ala-OH]", "values": [
      {"measurement": "ring closure, yield over several steps", "setting": "from C[C@H](NC(=O)c1nc[nH]c1C(=O)N(C)CCN(C)C(=O)[C@@H](C)N)C(=O)O, 14.0 h", "value": 22, "unit": "%"}
    ]},
    {"smiles": "CC(C)C[C@@H]1NC(=O)c2nc[nH]c2C(=O)N(C)CCN(C)C(=O)[C@H](C)NC1=O", "note": "[H-Ala-[N(Me)CH2CH2N(Me)]-CO-(imidazole-4,5-diyl)-CO-Leu-OH]", "values": [
      {"measurement": "ring closure, yield over several steps", "setting": "from CC(C)C[C@H](NC(=O)c1nc[nH]c1C(=O)N(C)CCN(C)C(=O)[C@H](C)N)C(=O)O, 14.0 h", "value": 12, "unit": "%"}
    ]}
  ]
}
